Experimental data from patent EP0326331B1, “Substituted quinolines and cinnolines” (Dow AgroSciences LLC, priority 1988, dated 1989).

Columns and labels:
Assay type in all cases: in vivo
corn rootworm = assay: Mite/insect screen, CRW; settings: percent mortality; for mortality at 12 ppm / mortality at 24 ppm: read-out: CRW RESULTS %; for mortality at 24 ppm: CRW rate 24.00 ppm
In short: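 Corn rootworm mortality (%) was evaluated following standard exposure times. Test material was emulsified by dissolution in acetone/alcohol (1:1) containing sulfonate/nonionic emulsifier blends TOXIMUL R (23 g/L) and TOXIMUL S (13 g/L), and water-diluted to the indicated doses.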

[1] = tested on: Cercospora beticola (leaf spot); assay: Test 1 greenhouse foliar spray screen, leaf spot on sugar beet; settings: Cercospora beticola; Test 1, foliar spray on sugar beet; disease control rating at 400 ppm / 100 ppm
[2] = tested on: Pyricularia oryzae (rice blast); assay: whole plant or invertebrate; settings: Pyricularia oryzae, foliar, read-out: RICE BLAST, Test 1, foliar spray on rice; disease control rating at 400 ppm / 100 ppm
[3] = tested on: Erysiphe graminis tritici (powdery mildew); assay: Test 1 greenhouse foliar spray screen, powdery mildew on wheat; settings: Blumeria graminis, foliar, Test 1, foliar spray on wheat; disease control rating at 400 ppm / 100 ppm; read-out: POWD MDEW
[4] = tested on: Twospotted spider mites (Tetranychus urticae Koch); assay: Mite/insect screen, SM; settings: for mortality at 200 ppm / mortality at 400 ppm: Tetranychus urticae, foliar, read-out: SM RESULTS %; for mortality at 400 ppm: rate 400 ppm
In short: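 Read-out: percent mortality after standard exposure periods. Test solutions were water dilutions of compound dissolved in acetone/alcohol (50:50) with emulsifier blends; leaves were sprayed to runoff on both surfaces and air-dried for one hour before exposure.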

[5] = tested on: Puccinia recondita tritici (leaf rust); assay: Test 1 greenhouse foliar spray screen, leaf rust on wheat; settings: Puccinia recondita, foliar, Test 1, foliar spray on wheat; disease control rating at 400 ppm / 100 ppm
[6] = tested on: Botrytis cinerea (gray mold); assay: Test 1 greenhouse foliar spray screen, gray mold on grape berries; settings: Botrytis cinerea, foliar; Test 1, spray on grape berries; disease control rating at 400 ppm / 100 ppm
plant pathogens = assay: Fungicidal efficacy against a broad spectrum of plant pathogens (summary of screen); settings: summary statement in the description
[7] = tested on: Venturia inaequalis (apple scab); assay: Test 1 greenhouse foliar spray screen, apple scab on apple seedling; settings: Venturia inaequalis; Test 1, foliar spray on apple seedling; disease control rating at 400 ppm / 100 ppm; read-out: APPL SCAB
[8] = tested on: Septoria tritici (leaf blotch); assay: Test 1 greenhouse foliar spray screen, leaf blotch on wheat; settings: Zymoseptoria tritici; Test 1, foliar spray on wheat; disease control rating at 400 ppm / 100 ppm; read-out: LEAF BLOT
[9] = tested on: Pseudoperonospora cubensis (downy mildew); assay: Test 1 greenhouse foliar spray screen, downy mildew on squash; settings: Pseudoperonospora cubensis, foliar, Test 1, foliar spray on squash; disease control rating at 400 ppm / 100 ppm; read-out: DOWN MDEW
[10] = tested on: southern armyworm (Spodopetra eridania Cramer); assay: Mite/insect screen, SAW; settings: Spodoptera eridania, foliar, percent mortality, foliar spray on squash, read-out: SAW RESULTS %; for mortality at 400 ppm: rate 400 ppm
In short: (§1)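 Percent mortality was scored after standard exposure periods, following spraying of leaves to runoff (both surfaces, 10 psi, 1 h drying) with water dilutions of compound in emulsifier-containing acetone/alcohol (50:50). Armyworms received excised treated leaves in dishes.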

[11] = tested on: melon aphids (Aphis gossypii Glover); assay: Mite/insect screen, MA; settings: Aphis gossypii, foliar, percent mortality, foliar spray on squash, read-out: MA RESULTS %; for mortality at 400 ppm: rate 400 ppm
In short: as §1

[12] = percent mortality, rate 200 ppm, foliar spray on squash
[13] = percent mortality, foliar spray on squash

SMILES | CRW RESULTS % (corn rootworm; CRW rate 12.00 ppm) | mortality at 12 ppm (corn rootworm; CRW rate 12.00 ppm) | pest or weed control at 400 ppm [1] | pest or weed control at 400 ppm [2] | pest or weed control at 400 ppm [3] | mortality at 200 ppm [4, 12] | SM RESULTS % [4, 12] | pest or weed control at 400 ppm [5] | pest or weed control at 400 ppm [6] | activity against a broad spectrum of plant pathogens (plant pathogens) | pest or weed control at 400 ppm [7] | pest or weed control at 400 ppm [8] | pest or weed control at 400 ppm [9] | mortality at 24 ppm (corn rootworm) | mortality at 400 ppm [10] | mortality at 400 ppm [4, 13] | mortality at 400 ppm [11] | mortality at 200 ppm ([10]; rate 200 ppm) | activity as miticides ([4]; summary statement in the description) | mortality at 200 ppm ([11]; rate 200 ppm)
Fc1cccc2c(OCCc3ccc(Cl)cc3)ccnc12 [Example 209, 4-[2-(4-chlorophenyl)-ethoxy]-8-fluoroquinoline] | 0% | 0% | 90 to 100% | 90 to 100% | 90 to 100% | 0% | 0% | 90 to 100% | 0 to 19% | particularly excellent activity | 20 to 89% | 90 to 100% | 90 to 100% |  |  |  |  |  |  | 
Cc1cccc(CCOc2ccnc3c(F)cccc23)c1 [Example 224, 8-fluoro-4-[2-(3-methylphenyl)ethoxy]quinoline] |  |  |  | 90 to 100% | 90 to 100% |  |  | 90 to 100% | 0 to 19% | particularly excellent activity |  |  | 90 to 100% | 0% | 0% | 0% | 0% |  |  | 
Fc1ccccc1CCOc1ccnc2c(F)cccc12 [Example 225, 8-fluoro-4-[2-(2-fluorophenyl)ethoxy]quinoline] |  |  |  | 90 to 100% | 90 to 100% |  |  | 90 to 100% | 0 to 19% | particularly excellent activity |  |  | 90 to 100% | 0% | 0% | 0% | 0% |  |  | 
CC(C)c1ccc(CCOc2ccnc3c(F)cccc23)cc1 [Example 238, 8-fluoro-4-[2-(4-(i-propyl)phenyl)ethoxy]quinoline] |  | 0% |  | 90 to 100% | 90 to 100% | 100% |  | 90 to 100% | 20 to 89% | particularly excellent activity |  |  | 90 to 100% | 0% | 100% | 0% | 0% | 0% | particularly excellent activity | 100%
CC(C)c1ccc(CCCc2ccnc3c(F)cccc23)cc1 [Example 256, 8-fluoro-4-[3-(4-(i-propyl)phenyl)propyl]quinoline] |  |  |  | 90 to 100% | 90 to 100% |  |  | 90 to 100% | 0 to 19% | particularly excellent activity |  |  | 90 to 100% | 100% | 100% | 0% | 0% |  |  | 
